Measured values: PubChem BioAssay AID2060496 (Molecular Pharmacology Branch, DTP, NCI, 2025)

System: 276233-004-R-J1-PDC complex spheroid viability
Experiment: Anticancer human tumor 276233-004-R-J1-PDC patient-derived colon adenocarcinoma cell line growth inhibition [GQUAD]
Conditions: for IC50: curve of first compound; for viability, T/C: stronger effect = lower value
Description: DNA G-quadruplex Stabilizer Agents in Combinations in Complex Spheroids
A high-throughput screen of multi-cell type tumor spheroids was designed to identify active combinations of DNA G-quadruplex stabilizer agents and targeted small molecules. Complex spheroids include a stromal component modeled by human endothelial cells (HUVEC) and fibroblasts modeled by human mesenchymal stem cells (MSCs). The concentration ranges selected for each drug and investigational agent were based upon clinically achievable concentrations if the clinical Cmax of the agent was known.
Compounds. The drugs and investigational agents: pidnarulex (CX-5461; NSC782164), APTO-253 (NSC789042), BRACO-19 (NSC847499), peposertib (NSC802822), ceralasertib (NSC780249), elimusertib (NSC800525), camonsertib (NSC841442), AZD-1390 (NSC803789), olaparib (NSC753686), talazoparib (NSC767125), ART-558 (NSC835418), sotorasib (NSC818433), MRTX-1133 (NSC836407), SN-38 (NSC673596), topotecan (NSC609699), etoposide (NSC141540), doxorubicin (NSC123127), gemcitabine (NSC613327), 5-fluorouracil (NSC19893), paclitaxel (NSC125973), vemurafenib (NSC761431), panobinostat (NSC761190), R-306465 (JNJ-16241199; NSC773264), adavosertib (NSC754352), TP-3654 (NSC805149), carboplatin (NSC241240), KSQ-4279 (NSC840948), and staurosporine (NSC755774) were obtained from the National Cancer Institute (NCI) Developmental Therapeutics Program Chemical Repository (34). The FDA-approved anticancer drug set is available from the NCI Developmental Therapeutics Program. […] The stock solutions were prepared in dimethyl sulfoxide (DMSO, Sigma-Aldrich, St. Louis, MO, cat. D2650) at 800-fold the tested concentration and stored at -70 degrees C prior to their use. All drugs and investigational agents were tested over a range starting from a high concentration at or near the clinical Cmax and decreasing in half-log increments. If the clinical Cmax for an agent had not been determined, the highest concentration tested was 10 microM.
2.3 Cell Culture. All cells were maintained in an incubator at 37 degrees C and 5% CO2 with 95% humidity. The PDC lines were cultured according to standard operating procedures established by the NCI PDMR. All PDCs were thawed and cultured in Matrigel-coated flasks prepared with a working solution of 1X Ham's F-12 nutrient mix, without supplementation (Invitrogen, cat. 11765054), 100 U/mL penicillin-streptomycin (Invitrogen, cat. 15140122), and 2.5% Matrigel (Corning Inc., cat. 354248) for the first three passages. The 857933-349-R-J2-PDC line was cultured in 6C/Colon 1B media, which includes advanced DMEM/F-12 (Thermo Fisher Scientific, cat. 12634028), 10 mM HEPES (Thermo Fisher Scientific, cat. 15630080), 1X GlutaMAX supplement (Thermo Fisher Scientific, cat. 35050061), 0.1 mg/mL primocin (InvivoGen, cat. ant-pm-2), 10% defined fetal bovine serum, heat inactivated (HyClone Laboratories Inc., cat. SH30070.03HI), 50% L-WRN conditioned media (ATCC, cat. CRL-3276), 1.25 mM N-Acetyl-L-cysteine (Sigma-Aldrich, cat. A9165), 10 mM nicotinamide (Sigma-Aldrich, cat. N0636), 1X B-27 supplement (Thermo Fisher Scientific, cat. 17504044), 1X N-2 supplement (Thermo Fisher Scientific, cat. 17502048), 10 microM Y-27632 dihydrochloride (Tocris Bioscience, cat. 1254), and 50 ng/mL human EGF recombinant protein (Thermo Fisher Scientific, cat. PHG0311). The 485176-168-R4-J1-PDC line was cultured in Panc media, which includes all 6C/Colon 1B media components plus 100 ng/mL human FGF-10 (Thermo Fisher Scientific, cat. 100-26), 500 nM SB-431542 (Selleckchem, cat. S1067), and gastrin (Tocris, cat. 3006).
[…]

[1] = second compound 0.0316 µM, first compound 0.0316 µM
[2] = second compound 0.0316 µM, first compound 0.1 µM
[3] = second compound 0.0316 µM, first compound 0.316 µM
[4] = second compound 0.0316 µM, first compound 1 µM
[5] = second compound 0.0316 µM, first compound 3.16 µM
[6] = second compound 0.0316 µM, first compound 10 µM
[7] = second compound 0.1 µM, first compound 0.0316 µM
[8] = second compound 0.1 µM, first compound 0.1 µM
[9] = second compound 0.1 µM, first compound 0.316 µM
[10] = second compound 0.1 µM, first compound 1 µM
[11] = second compound 0.1 µM, first compound 3.16 µM
[12] = second compound 0.1 µM, first compound 10 µM
[13] = second compound 0.316 µM, first compound 0.0316 µM
[14] = second compound 0.316 µM, first compound 0.1 µM
[15] = second compound 0.316 µM, first compound 0.316 µM
[16] = second compound 0.316 µM, first compound 1 µM
[17] = second compound 0.316 µM, first compound 3.16 µM
[18] = second compound 0.316 µM, first compound 10 µM
[19] = second compound 1 µM, first compound 0.0316 µM
[20] = second compound 1 µM, first compound 0.1 µM
[21] = second compound 1 µM, first compound 0.316 µM
[22] = second compound 1 µM, first compound 1 µM
[23] = second compound 1 µM, first compound 3.16 µM
[24] = second compound 1 µM, first compound 10 µM
[25] = second compound 3.16 µM, first compound 0.0316 µM
[26] = second compound 3.16 µM, first compound 0.1 µM
[27] = second compound 3.16 µM, first compound 0.316 µM
[28] = second compound 3.16 µM, first compound 1 µM
[29] = second compound 3.16 µM, first compound 3.16 µM
[30] = second compound 3.16 µM, first compound 10 µM
[31] = second compound 10 µM, first compound 0.0316 µM
[32] = second compound 10 µM, first compound 0.1 µM
[33] = second compound 10 µM, first compound 0.316 µM
[34] = second compound 10 µM, first compound 1 µM
[35] = second compound 10 µM, first compound 3.16 µM
[36] = second compound 10 µM, first compound 10 µM
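Also: spheroids exposed to drugs for seven days.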
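For viability, T/C in this document: 100% = DMSO vehicle control viability.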

C=CC(=O)N1CCN(c2nc(=O)n(-c3c(C)ccnc3C(C)C)c3nc(-c4c(O)cccc4F)c(F)cc23)C(C)C1 (centres undefined) + CN(C)c1ccc(Nc2c3ccc(NC(=O)CCN4CCCC4)cc3nc3cc(NC(=O)CCN4CCCC4)ccc23)cc1 was tested, and the IC50 (second compound 0.0316 µM) was > 10 µM, the IC50 (second compound 0.1 µM) was > 10 µM and the IC50 (second compound 0.316 µM) was > 10 µM. The IC50 (second compound 1 µM) was > 10 µM, the IC50 (second compound 3.16 µM) was < 0.0316 µM and the IC50 (second compound 10 µM) was > 10 µM. It also gave a viability, T/C [1] of 93.1%, a viability, T/C [2] of 90.4% and a viability, T/C [3] of 106%. For the same molecule, the viability, T/C [4] was 97.6%, the viability, T/C [5] was 102% and the viability, T/C [6] was 87.6%. It also gave a viability, T/C [7] of 90%, a viability, T/C [8] of 75.8% and a viability, T/C [9] of 80.6%. For the same molecule, the viability, T/C [10] was 73.9%, the viability, T/C [11] was 77% and the viability, T/C [12] was 75.2%. For the same molecule, the viability, T/C [13] was 67.9%, the viability, T/C [14] was 82.1% and the viability, T/C [15] was 68.6%. It also gave a viability, T/C [16] of 58.5%, a viability, T/C [17] of 71% and a viability, T/C [18] of 68.9%. It also gave a viability, T/C [19] of 55.4%, a viability, T/C [20] of 47.8% and a viability, T/C [21] of 62.2%. For the same molecule, the viability, T/C [22] was 56.6%, the viability, T/C [23] was 59.1% and the viability, T/C [24] was 63.6%. The viability, T/C [25] was 48.2%, the viability, T/C [26] was 52.1% and the viability, T/C [27] was 42.3%. The viability, T/C [28] was 44.6%, the viability, T/C [29] was 55.8% and the viability, T/C [30] was 45.3%. For the same molecule, the viability, T/C [31] was 50.6%, the viability, T/C [32] was 55.1% and the viability, T/C [33] was 43.5%. The viability, T/C [34] was 53.5%, the viability, T/C [35] was 62.6% and the viability, T/C [36] was 47.8%.
In the case of CC(=O)O[C@H]1C(=O)[C@@]2(C)[C@H]([C@H](OC(=O)c3ccccc3)[C@]3(O)C[C@H](OC(=O)[C@H](O)[C@@H](NC(=O)c4ccccc4)c4ccccc4)C(C)=C1C3(C)C)[C@]1(OC(C)=O)CO[C@@H]1C[C@@H]2O + CN(C)c1ccc(Nc2c3ccc(NC(=O)CCN4CCCC4)cc3nc3cc(NC(=O)CCN4CCCC4)ccc23)cc1, the IC50 (second compound 0.0316 µM) is reported as > 10 µM, the IC50 (second compound 0.1 µM) is reported as > 10 µM and the IC50 (second compound 0.316 µM) is reported as > 10 µM. For the same molecule, the IC50 (second compound 1 µM) was 4.25 µM, the IC50 (second compound 3.16 µM) was < 0.0316 µM and the IC50 (second compound 10 µM) was < 0.0316 µM. The viability, T/C [1] was 86.5%, the viability, T/C [2] was 98.3% and the viability, T/C [3] was 87.9%. For the same molecule, the viability, T/C [4] was 85.2%, the viability, T/C [5] was 88% and the viability, T/C [6] was 80.6%. The viability, T/C [7] was 70.4%, the viability, T/C [8] was 82.2% and the viability, T/C [9] was 65.8%. For the same molecule, the viability, T/C [10] was 79.7%, the viability, T/C [11] was 69.8% and the viability, T/C [12] was 69.8%. For the same molecule, the viability, T/C [13] was 67.5%, the viability, T/C [14] was 65.5% and the viability, T/C [15] was 57.4%. For the same molecule, the viability, T/C [16] was 54.1%, the viability, T/C [17] was 67.8% and the viability, T/C [18] was 54.9%. It also gave a viability, T/C [19] of 52.7%, a viability, T/C [20] of 52.6% and a viability, T/C [21] of 57%. The viability, T/C [22] was 55.9%, the viability, T/C [23] was 54.4% and the viability, T/C [24] was 41.7%. For the same molecule, the viability, T/C [25] was 44.4%, the viability, T/C [26] was 41.9% and the viability, T/C [27] was 37.2%. For the same molecule, the viability, T/C [28] was 49.5%, the viability, T/C [29] was 50% and the viability, T/C [30] was 49.7%. The viability, T/C [31] was 36.8%, the viability, T/C [32] was 44.1% and the viability, T/C [33] was 43.7%. It also gave a viability, T/C [34] of 44.3%, a viability, T/C [35] of 51.9% and a viability, T/C [36] of 51.7%.
